Tested on: yeast genes (level of expressed mRNA)
Assay: DNA chip analysis of expressed mRNA of yeast genes after 2 h culture with a toxic chemical substance
Format: cell-based, Saccharomyces cerevisiae S288C
Method: Yeast (Saccharomyces cerevtisiae S288C (α SUC2mal mel gap2 CUP1)) were cultured at 25° C. on YPD medium (yeast extract 1%, polypepton 2%, glucose 2%). One of toxic chemical substances was added to the cell at logarithmic growth phase, and the cell was further cultured for two hours. Cell was cultured without any chemical substance in the same condition, and was used as control. Concentrations of the chemical substances were defined to inhibit the growth of the yeast but not lead to death.
After the completion of cultivation, the culture was centrifuged to collect the cells. To the cells, sodium acetate buffer (50 mM sodium acetate, 10 mM EDTA, 1% SDS) was added, and the mixture was shaken at 65° C. for five minutes, followed by returning to room temperature, and obtaining the supernatant, which procedure was repeated two times. To the supernatant, ½ amount of a solution of phenol/chloroform was added, and the mixture was centrifuged to give a supernatant, which was added with an equal amount of chloroform, and the mixture was centrifuged to give a supernatant. To the supernatant, an equal amount of isopropanol containing 0.3 M sodium acetate was added, and the mixture was allowed to stand at room temperature for 30 minutes, after which the mixture was centrifuged to give a sediment of the whole RNAs. Seventy % ethanol was added to the sediment, and the mixture was again centrifuged to give a sediment, which was then dried and dissolved in water. mRNA was isolated from the whole RNAs as followings. In view of the fact that a poly A chain is attached to the 3′ terminus of mRNA, a polynucleotide having a poly T structure which was immobilized on the surface of latex beads was used to trap the mRNA, and then the mRNA was washed and eluted with spine column (Oligotex-dT30<Super>mRNA Purification Kit, Takara). Reverse transcription of the mRNA was conducted with a reverse transcriptase (Super Script II Reverse Transcriptase; catalogue No. 18064-014, GibcoBRL) using fluorescence-labeled nucleotides to give cDNAs that were introduced with Cy3-dUTP or Cy5-dUTP during the reverse transcription.
The labeled cDNAs were dissolved in TE buffer (10 mM Tris-HCl/1 mM EDTA, pH8.0), and the solution was dropped on the DNA chip containing the whole genes of yeast (DNA Chip Research Inc. Japan) so that the cDNAs were hybridized on the DNA chip at 65° C. for over 12 hours. The fluoresces intensity of the DNA chip was read with a scanner, and the ratio relative to the fluorescence intensity resulting from the absence of chemical substance was estimated as the following, which is shown in Tables 1 to 9: [formula]
In the Tables, “Intensity” indicated in the rightmost column is a value of the level of expressed mRNA of each gene in control cells as divided by the average level of the expressions of the whole genes.

## γ-hexachlorocyclohexane [(7)]
Yeast gene YNL074C, ratio to control without chemical substance, 2 h culture
  The level of expressed mRNA in the presence of chemical substance/: 1.1
Yeast gene YNL092W, ratio to control without chemical substance, 2 h culture
  The level of expressed mRNA in the presence of chemical substance/: 1.6
Yeast gene YNL093W
  The level of expressed mRNA in the presence of chemical substance/The level of expressed mRNA in the absence of chemical substance: 1.4
Yeast gene YNL115C, ratio to control without chemical substance, 2 h culture
  The level of expressed mRNA in the presence of chemical substance/: 2.4
Yeast gene YNL156C, ratio to control without chemical substance, 2 h culture
  The level of expressed mRNA in the presence of chemical substance/: 1.9
Yeast gene YNL234W, ratio to control without chemical substance, 2 h culture
  The level of expressed mRNA in the presence of chemical substance/: 1.2
Yeast gene YNL281W, ratio to control without chemical
  The level of expressed mRNA in the presence of chemical substance/: 1.2
Yeast gene YNL305C, ratio to control without chemical
  The level of expressed mRNA in the presence of chemical substance/: 1.7
Yeast gene YNL333W
  The level of expressed mRNA in the presence of chemical substance/The level of expressed mRNA in the absence of chemical substance: 2.9
Yeast gene YNR010W
  The level of expressed mRNA in the presence of chemical substance/The level of expressed mRNA in the absence of chemical substance: 1.5
Yeast gene YNR068C, ratio to control without chemical
  The level of expressed mRNA in the presence of chemical substance/: 1.8
Yeast gene YNR069C
  The level of expressed mRNA in the presence of chemical substance/The level of expressed mRNA in the absence of chemical substance: 1.4
Yeast gene YNR072W
  The level of expressed mRNA in the presence of chemical substance/in the absence of chemical substance: 1.5
Yeast gene YOL013C
  The level of expressed mRNA in the presence of chemical substance/The level of expressed mRNA in the absence of chemical substance: 1.7
Yeast gene YOL032W, ratio to control without chemical
  The level of expressed mRNA in the presence of chemical substance/: 1.4
Yeast gene YOL036W, ratio to control without chemical
  The level of expressed mRNA in the presence of chemical substance/: 1.0
Yeast gene YOL047C, ratio to control without chemical
  The level of expressed mRNA in the presence of chemical substance/: 1.3
Yeast gene YOL071W, ratio to control without chemical
  The level of expressed mRNA in the presence of chemical substance/: 2.0
Yeast gene YOL082W, ratio to control without chemical
  The level of expressed mRNA in the presence of chemical substance/: 2.5
Yeast gene YOL083W, ratio to control without chemical
  The level of expressed mRNA in the presence of chemical substance/: 3.1
Yeast gene YOL096C
  The level of expressed mRNA in the presence of chemical substance/in the absence of chemical substance: 1.7
Yeast gene YOL117W, ratio to control without chemical
  The level of expressed mRNA in the presence of chemical substance/: 1.6
Yeast gene YOL131W, ratio to control without chemical
  The level of expressed mRNA in the presence of chemical substance/: 1.3
Yeast gene YOL150C, ratio to control without chemical substance, 2 h culture
  The level of expressed mRNA in the presence of chemical substance/: 2.4
Yeast gene YOL162W, ratio to control without chemical
  The level of expressed mRNA in the presence of chemical substance/: 2.0
Yeast gene YOL164W
  The level of expressed mRNA in the presence of chemical substance/The level of expressed mRNA in the absence of chemical substance: 2.2
Yeast gene YOR019W, ratio to control without chemical
  The level of expressed mRNA in the presence of chemical substance/: 2.8
Yeast gene YOR036W
  The level of expressed mRNA in the presence of chemical substance/The level of expressed mRNA in the absence of chemical substance: 1.8
Yeast gene YOR117W
  The level of expressed mRNA in the presence of chemical substance/The level of expressed mRNA in the absence of chemical substance: 3.3
Yeast gene YOR124C
  The level of expressed mRNA in the presence of chemical substance/The level of expressed mRNA in the absence of chemical substance: 1.1
Yeast gene YOR132W
  The level of expressed mRNA in the presence of chemical substance/The level of expressed mRNA in the absence of chemical substance: 1.4
Yeast gene YOR157C
  The level of expressed mRNA in the presence of chemical substance/The level of expressed mRNA in the absence of chemical substance: 1.2
Yeast gene YOR180C
  The level of expressed mRNA in the presence of chemical substance/in the absence of chemical substance: 0.8
Yeast gene YOR181W
  The level of expressed mRNA in the presence of chemical substance/The level of expressed mRNA in the absence of chemical substance: 0.7
Yeast gene YOR185C
  The level of expressed mRNA in the presence of chemical substance/The level of expressed mRNA in the absence of chemical substance: 1.3
Yeast gene YOR197W, ratio to control without chemical
  The level of expressed mRNA in the presence of chemical substance/: 0.9
Yeast gene YOR198C
  The level of expressed mRNA in the presence of chemical substance/The level of expressed mRNA in the absence of chemical substance: 1.6
Yeast gene YOR259C
  The level of expressed mRNA in the presence of chemical substance/The level of expressed mRNA in the absence of chemical substance: 1.3
Yeast gene YOR261C
  The level of expressed mRNA in the presence of chemical substance/The level of expressed mRNA in the absence of chemical substance: 1.9
Yeast gene YOR288C
  The level of expressed mRNA in the presence of chemical substance/The level of expressed mRNA in the absence of chemical substance: 2.0
Yeast gene YOR355W
  The level of expressed mRNA in the presence of chemical substance/The level of expressed mRNA in the absence of chemical substance: 1.1
Yeast gene YOR363C
  The level of expressed mRNA in the presence of chemical substance/in the absence of chemical substance: 0.7
Yeast gene YOR383C
  The level of expressed mRNA in the presence of chemical substance/The level of expressed mRNA in the absence of chemical substance: 8.0
Yeast gene YPL087W, ratio to control without chemical
  The level of expressed mRNA in the presence of chemical substance/: 4.2
Yeast gene YPL089C
  The level of expressed mRNA in the presence of chemical substance/The level of expressed mRNA in the absence of chemical substance: 0.9
Yeast gene YPL109C
  The level of expressed mRNA in the presence of chemical substance/The level of expressed mRNA in the absence of chemical substance: 1.8
Yeast gene YPL149W
  The level of expressed mRNA in the presence of chemical substance/The level of expressed mRNA in the absence of chemical substance: 1.2
Yeast gene YPL154C
  The level of expressed mRNA in the presence of chemical substance/The level of expressed mRNA in the absence of chemical substance: 1.5
Yeast gene YPL196W, ratio to control without chemical
  The level of expressed mRNA in the presence of chemical substance/: 2.4
Yeast gene YPL206C, ratio to control without chemical
  The level of expressed mRNA in the presence of chemical substance/: 1.2
Yeast gene YPL222W, ratio to control without chemical
  The level of expressed mRNA in the presence of chemical substance/: 1.1
Yeast gene YPR023C, ratio to control without chemical
  The level of expressed mRNA in the presence of chemical substance/: 1.2
Yeast gene YPR103W
  The level of expressed mRNA in the presence of chemical substance/The level of expressed mRNA in the absence of chemical substance: 1.6
Yeast gene YPR108W
  The level of expressed mRNA in the presence of chemical substance/The level of expressed mRNA in the absence of chemical substance: 1.6
Yeast gene YPR151C, ratio to control without chemical
  The level of expressed mRNA in the presence of chemical substance/: 4.4
Yeast gene YPR184W
  The level of expressed mRNA in the presence of chemical substance/in the absence of chemical substance: 1.3

Source: patent publication US20050112573A1, “Method of detecting toxic substance” (priority 2001, published 2005)
